# Experimental data taken from patent publication US5691311A (Biogen, Inc., priority 1995, dated 1997).
# Read-outs that look alike come from different tables or passages of the source.
# How the values were obtained:
# soluble thrombin = biological target: T1, soluble thrombin (Homo sapiens, UniProt P00734); test: Fibrinopeptide A (FPA) release by soluble thrombin; assay type: biochemical; details: 0.1 U/ml
# T1 construct: We added a 270-fold excess of ^14 C-DFP to thrombin
# [1] = tested on: platelet-dependent thrombosis; details: collagen-coated silastic tubing, 160 U/kg bolus then 160 U/kg/hr infusion; cited from earlier work
# hemostasis = test: Template bleeding time; assay type: in vivo, baboon
# clot-bound thrombin = clot-bound thrombin (Homo sapiens, UniProt P00734); test: Fibrinopeptide A (FPA) release by clot-bound thrombin; assay type: biochemical; details: similar dose (0.1 U/ml)
# APTT [2] = test: Systemic anticoagulant effect (APTT) of antithrombotic agents; assay type: in vivo, baboon; details: dose not given
# Source text: We also tested the effects of a variety of other agents on template bleeding time in the baboon, as well as on systemic anticoagulant effects (as measured by APTT).
# [3] = tested on: pooled, normal human plasma; test: Activated partial thromboplastin time (APTT) assay in plasma; assay type: biochemical; details: 10 to 32,300 ng/ml
# Source text: Hirulog-8 using pooled, normal human plasma (George King Biomedical, Overland Park, Kans.) and a Coag-A-Mate XC instrument (General Diagnostics, Organon Technica, Oklahoma City, Okla.). Activity was monitored using the activated partial thromboplastin time (APTT) assay with CaCl2 and phospholipid solutions obtained from the manufacturer.
# APTT [4] = test: In vivo anticoagulant activity, APTT after intravenous infusion; design: species or system baboon
# Experimental: Whole blood from treated and control animals was removed from a catheter placed in the femoral vein and collected into 3.8% sodium citrate (9:1; blood:sodium citrate). Plasma was obtained by standard methods and the APTT was recorded by methods described in Example 10.
# sarcoma T241 cells = test: Anti-metastatic activity, lung tumor colonies; assay type: in vivo, C57BL/6 mice; details: i.v. or s.c., 15 days
# Source text: After 15 days, the animal is sacrificed and lung tumor colonies are quantitated.
# [5] = tested on: platelet-dependent thrombus formation; test: High and low shear platelet-dependent thrombus formation, dual-chamber device; assay type: in vivo, baboon; details: 0.05 mg/kg/min, 40 minutes
# Source text: The device was comprised of a 2 cm segment of collagen-coated Gortex followed by 2 cm segments of expanded diameter. Using this device, thrombus formation was initiated by exposure of native flowing blood to a segment of the collagen-coated Gortex at high shear. This part of the experimental protocol simulated arterial-like conditions. When the blood entered the expanded diameter segments, low-shear, vortex conditions were maintained, thereby simulating venous thrombosis. In control animals, a total of 9.3±2.3×10^8 and 6.1±0.5×10^8 platelets/cm accumulated after 40 minutes in the high and low shear segments, respectively.
# [6] = tested on: human umbilical vein endothelial cells (HUVECs); test: Thrombin-induced synthesis of platelet activating factor (PAF); assay type: cell-based; details: 0-1 μg/ml, thrombin 1 U/ml
# Experimental: The ability of the thrombin inhibitors of this invention to prevent thrombin-induced synthesis of platelet activating factor (PAF) is assayed using cultured human umbilical vein endothelial cells (HUVECs). HUVECS are extracted from human umbilical cords by collagenase digestion according to established procedures [M. A. Gimborne, Jr., "Culture of Vascular Endothelium", Prog. Hemost. Thromb., 3, pp. 1-28 (1976)]. HUVECs are grown to confluence in a 96-well microtiter plate in the presence of [^3 H]-acetate. Cells cultured in this manner produce [^3 H]-acetyl-PAF, which may be quantitated by extraction of HUVEC membrane phospholipids.
# Cells are incubated for 5 minutes and the supernatant is then removed. Medium containing 0.1% gelatin, 50 mM acetic acid in methanol (2:1 v/v) is then added to the HUVECs. PAF is then extracted and quantified using conventional techniques [T. M. Mcintyre et al., "Cultured Endothelial Cells Synthesize Both Platelet-Activating Factor and Prostacyclin in Response to Histamine, Bradykinin and Adenosine Triphosphate", J. Clin. Invest., 76, pp. 271-80 (1985)]. The IC50 values are then calculated.
# [7] = tested on: E. coli-induced septic shock; test: E. coli-induced septicemia / disseminated intravascular coagulation; assay type: in vivo, baboon; details: 0.08 mg/kg/hr infusion
# Source text: We induced septicemia in baboons by injection of a lethal dose of live E. coli according to the method described by F. B. Taylor et al. J. Clin. Invest., 79, pp. 918-25 (1987).
# fibrin(ogen) deposition = test: Fibrin(ogen) deposition in AV shunt thrombi; assay type: in vivo, baboon; details: collagen-coated tubing, 60 minute exposure
# Experimental: Fibrin deposition was determined by measurement of ^125 I-fibrin(ogen) 30 days after completion of the ^111 In-platelet assay described above. This allowed the ^111 In label to decay to a non-interfering level.
# [8] = Clearance times monitored by APTT; assay type: in vivo, baboon
# Experimental: APTT assays, performed as described in Example 11, were used to monitor clearance times.
# APTT was measured following the 60 minute infusion and at various time intervals thereafter.
# APTT measurements were taken at various time intervals following injection.
# HUVECs = test: Thrombin-induced polymorphonuclear leukocyte (PMN) adhesion to HUVECs; assay type: cell-based, human; details: 5 μg/ml, α-thrombin 0.1 or 1 U/ml
# Experimental: HUVECs are grown to confluence in MEM containing 1% fetal calf serum in 24-well cluster plates. The medium is then removed, the cells are washed two times with fresh, serum-free medium and incubated in the same medium for 10-30 minutes at 37° C. to remove serum products. PMNs (2.5×10^6 in 1 ml), which are pre-equilibrated at 37° C., are then added to each well. The PMNs are allowed to settle onto the HUVEC monolayer for 2 minutes. […] The cells are incubated for 5 minutes at 37° C., washed twice and then examined by phase-contrast microscopy. Adherent PMNs are counted directly.
# [9] = tested on: platelet-dependent thrombosis; test: Platelet deposition on thrombogenic surfaces in exteriorized AV shunt; assay type: in vivo, baboon
# Experimental: Specifically, we placed various thrombogenic surfaces in a chronic exteriorized AV shunt in the animals. These surfaces included segments of endarterectomized baboon aorta, collagen-coated silastic tubing, collagen-coated Gortex and Dacron vascular graft. Following placement in the shunt, the surfaces were exposed to native flowing blood to elicit thrombus formation. We measured the formation of thrombi over a period of 60 minutes by monitoring the deposition of platelets on the thrombogenic surface. These measurements were recorded by external gamma-camera imaging following pre-infusion of the test animal with autologous ^111 In-labeled platelets.
# [10] = tested on: thrombin-induced platelet activation; test: Thrombin-induced platelet activation in platelet-rich plasma; assay type: cell-based, human; details: 0-500 ng/ml, thrombin 0.2, 0.25 or 0.5 units/ml
# Experimental: Thrombin-induced platelet activation studies are performed at 37° C. using a Biodata PAP4 Platelet Aggregometer. Platelet-rich plasma (PRP) is obtained from normal, healthy, volunteers who have not taken any medication altering platelet function for at least one week prior to study. PRP is prepared as described by J. A. Jakubowski et al., "Modification of Human Platelet by a Diet Enriched in Saturated or Polyunsaturated Fat", Atherosclerosis, 31, pp. 335-44 (1978). […] One minute later, we add human α-thrombin to the platelet suspension to a final concentration of 0.2, 0.25 or 0.5 units/ml total assay volume. Aggregation is monitored as an increase in light transmission for 5 minutes following the addition of thrombin. We then calculate % Inhibition as (% aggregationsample)/(% aggregationcontrol)×100.
# thrombin = thrombin (Homo sapiens, UniProt P00734); details: cited from earlier work
compound,measurement,setting,value
Heparin,inhibition of FPA release catalyzed by soluble thrombin,soluble thrombin,approximately 70%
same,platelet deposition level relative to saline-treated control,[1],about 80%
same,Bleeding Time,hemostasis; in vivo,10 min
same,effect on FPA release catalyzed by clot-bound thrombin,clot-bound thrombin,no effect
same,APTT (% control),APTT [2],706.1 % control
CC[C@H](C)[C@H](NC(=O)[C@H](CCC(=O)O)NC(=O)[C@H](CCC(=O)O)NC(=O)[C@H](Cc1ccccc1)NC(=O)[C@H](CC(=O)O)NC(=O)CNC(=O)[C@H](CC(N)=O)NC(=O)CNC(=O)CNC(=O)CNC(=O)CNC(=O)[C@@H]1CCCN1C(=O)[C@H](CCCNC(=N)N)NC(=O)[C@@H]1CCCN1C(=O)[C@H](N)Cc1ccccc1)C(=O)N1CCC[C@H]1C(=O)N[C@@H](CCC(=O)O)C(=O)N[C@@H](CCC(=O)O)C(=O)N[C@@H](Cc1ccc(O)cc1)C(=O)N[C@@H](CC(C)C)C(=O)O [Hirulog-8],maximal increase of APTT of plasma,[3],too high to be measured
same,increase in the APTT,APTT [4]; 0.002 mg/kg/min infusion,200 % increase
same,APTT response to dose,APTT [4]; 0.002 to 0.2 mg/kg/min i.v.,dose-dependent increase in the APTT
same,anti-metastatic activity (reduction in lung tumor colonies),sarcoma T241 cells,demonstrates anti-metastatic activity
same,inhibition of platelet accumulation,[5]; high shear,29.0%
same,inhibition of platelet accumulation,[5]; low shear,42.6%
same,synthesis of PAF by HUVECs,[6],inhibits the synthesis of PAF
same,hematocrit drop,[7],completely attenuated hematocrit drop
same,intravascular thrombosis at autopsy,[7],only the control group displayed intravascular thrombosis
same,morbidity after lethal infusion of E. coli,[7],still resulted in morbidity
same,peak drop in blood pressure,[7],60 % of baseline
same,fibrin(ogen) deposition,fibrin(ogen) deposition; 0.01 mg/kg/min,completely inhibited fibrin(ogen) deposition
same,fibrin(ogen) deposition,fibrin(ogen) deposition; 0.04 mg/kg/min,completely inhibited fibrin(ogen) deposition
same,half-life,[8]; 1 mg/kg i.v. bolus,14 min
same,peak APTT,"[8]; 1 mg/kg i.v. bolus, 2 minutes after injection",570 % of control
same,absorption after subcutaneous administration,[8]; 1 mg/kg subcutaneous,quantitatively adsorbed
same,clearance half-time,[8]; 1 mg/kg subcutaneous,340 min
same,APTT,"[8]; 1 mg/kg subcutaneous, 15 minutes",approximately 200 % of control
same,average half-time for clearance,"[8]; after 60 minute i.v. infusion, 0.002-0.2 mg/kg/min",9.2 ± 3.3 min
same,increase in bleeding time over control values,hemostasis; 0.1 mg/kg/min,two-fold
same,bleeding times,hemostasis; 0.2 mg/kg/min,3 times control values
same,bleeding times,hemostasis; 0.002 to 0.04 mg/kg/min,no significant increase in bleeding times
same,Bleeding Time,hemostasis; dose not given,5.5 min
same,adherent PMNs versus saline,HUVECs,significantly fewer adherent PMNs
same,ED50,[9]; collagen-coated Gortex,0.135 mg/kg/min
same,inhibition of platelet deposition,"[9]; collagen-coated Gortex, 0.2 mg/kg/min",62.9%
same,ED50,[9]; collagen-coated silastic tubing,0.004 mg/kg/min
same,inhibition of platelet-dependent thrombus formation compared to control,"[9]; collagen-coated silastic tubing, 5 nmole/kg/min",60-70%
same,inhibition of platelet deposition,"[9]; collagen-coated silastic tubing, 0.04 mg/kg/min",completely inhibited platelet deposition
same,ED50,"[9]; collagen-coated surfaces, applicants' determinations",< 5 nmol/kg/min
same,ED50 (dosage required to reduce platelet deposition by 50%),[9]; endarterectomized baboon aorta,0.002 mg/kg/min
same,inhibition of platelet deposition,"[9]; endarterectomized baboon aorta, 0.002 mg/kg/min, 60 minutes",53.6%
same,inhibition of platelet deposition,"[9]; endarterectomized baboon aorta, 0.01 mg/kg/min, 60 minutes",75.5%
same,thrombin-induced platelet activation,[10],blocks thrombin-induced platelet activation
same,APTT (% control),APTT [2],300.6 % control
hirudin,maximal increase of APTT of plasma,[3],too high to be measured
same,Kd,"thrombin; 1:1 stoichiometric complex, read-out: Kd of hirudin binding to thrombin",0.02 nM
same,Kd,"thrombin; site separate from the catalytic site (anion-binding exosite), read-out: Kd of hirudin for the low affinity site on thrombin",10 nM
